Format in all cases: binding
Experiment [1] addresses T1, [IKZF1 ZF2]-[compound]-[CRBN/DDB1] ternary complex (Homo sapiens, UniProt Q13422+Q96SW2).
T1 construct: IKZF1 ZF2
The experiment can be described thus: AlphaLISA assay for off-target recruitment detection, IKZF1 ZF2. The following applies: 1 μM compound; normalized to Lenalidomide. Here is the method:
(§1) The ability of the molecular glue compounds of the invention to mediate the proximity of CRBN with its known neo-substrates (shown in Table 3) was assessed using AlphaLISA to detect the formation of a [neo-substrate]-[compound of formula (I)]-[CRBN/DDB1] ternary complex.
(§2) Two types of protein solution were prepared: • neo-substrate, 40 μg/ml AlphaScreen Donor Beads (Table 3) in PBS (10 mM phosphate buffer, 137 mM NaCL, 2.7 mM KCl, pH 7.4) buffer supplemented with Tween-20 (Table 3) and 1 mM DTT, • 200 nM 6×His-CRBN/DDB1, 40 μg/ml AlphaLISA Anti-6×His Acceptor beads in PBS buffer with Tween-20 (Table 3) and 1 mM DTT.
(§3) The prepared solutions were incubated at room temperature for 30 min and then the solution containing the donor beads was mixed with the solution containing the acceptor beads.
(§4) The tested compounds were dispensed onto a white 384-well AlphaPlate 384 SW. DMSO was backfilled to all wells, resulting in a final DMSO content of 2%. Wells containing only DMSO served as background. Next, 10 μl of solution with donor and acceptor beads was added to the wells.
(§5) The plate was sealed with transparent film and shaken using a VibroTurbulator for 60 sec at room temperature, level 3. The plate was then spun down shortly (10 sec, 1000 rcf, room temperature) and incubated at 25° C. for 30 min.
(§6) The read-out was performed with PerkinElmer Enspire Multimode Plate Reader (method for AlphaLISA 384-well low volume, Filterset: λexc=680 nm, λem=615 nm).
(§7) The results were analyzed as follows: • 1) an average of luminescence for background signal was calculated and used as a negative control; • 2) an average of the maximum measured luminescence for reference compound (Table 3) was calculated and used as an internal positive control; • 3) raw luminescence values were normalized against positive and negative controls; • 4) Normalized responses to reference molecular glue were determined.
(Alpha assays give light when donor and acceptor beads are brought close together.)

The target of experiment [2] is T2, [SALL4 ZF2]-[compound]-[CRBN/DDB1] ternary complex (Homo sapiens, UniProt Q96SW2+Q9UJQ4).
T2 construct: SALL4 ZF2
Briefly: AlphaLISA assay for off-target recruitment detection, SALL4 ZF2. The following applies: 1 μM compound; normalized to Lenalidomide. How it is done: as §1, §2, §3, §4, §5, §6, §7

In experiment [3] the target is T3, [IKZF2 ZF2]-[compound]-[CRBN/DDB1] ternary complex (Homo sapiens, UniProt Q96SW2+Q9UKS7).
T3 construct: IKZF2 ZF2
Briefly: AlphaLISA assay for off-target recruitment detection, IKZF2 ZF2. The following applies: 1 μM compound; normalized to Helios modulator. Here is the method:
as §1, §2, §3, §4, §5, §6, §7

Experiment [4] has as its target [CK1α]-[compound]-[CRBN/DDB1] ternary complex (Homo sapiens, UniProt P48729+Q96SW2). The experiment can be described thus: AlphaLISA assay for off-target recruitment detection, CK1α. The conditions noted are these: 1 μM compound; normalized to FPFT-2216. Here is the method: as §1, §2, §3, §4, §5, §6, §7

The values below come from patent US20260232682A1, “GSPT1 DEGRADER COMPOUNDS” (Captor Therapeutics S.A., priority 2023, published 2026).

Chain of [CK1α]-[compound]-[CRBN/DDB1] ternary complex (P48729 whole entry): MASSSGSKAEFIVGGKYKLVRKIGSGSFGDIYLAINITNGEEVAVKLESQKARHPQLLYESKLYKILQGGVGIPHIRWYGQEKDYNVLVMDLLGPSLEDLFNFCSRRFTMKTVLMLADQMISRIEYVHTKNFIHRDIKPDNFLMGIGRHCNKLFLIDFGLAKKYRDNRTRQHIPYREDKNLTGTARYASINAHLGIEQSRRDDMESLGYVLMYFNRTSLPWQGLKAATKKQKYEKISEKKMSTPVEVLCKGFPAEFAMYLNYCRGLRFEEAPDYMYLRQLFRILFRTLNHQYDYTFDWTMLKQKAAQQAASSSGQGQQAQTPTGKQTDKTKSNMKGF
Chain of [CK1α]-[compound]-[CRBN/DDB1] ternary complex (Q96SW2 whole entry): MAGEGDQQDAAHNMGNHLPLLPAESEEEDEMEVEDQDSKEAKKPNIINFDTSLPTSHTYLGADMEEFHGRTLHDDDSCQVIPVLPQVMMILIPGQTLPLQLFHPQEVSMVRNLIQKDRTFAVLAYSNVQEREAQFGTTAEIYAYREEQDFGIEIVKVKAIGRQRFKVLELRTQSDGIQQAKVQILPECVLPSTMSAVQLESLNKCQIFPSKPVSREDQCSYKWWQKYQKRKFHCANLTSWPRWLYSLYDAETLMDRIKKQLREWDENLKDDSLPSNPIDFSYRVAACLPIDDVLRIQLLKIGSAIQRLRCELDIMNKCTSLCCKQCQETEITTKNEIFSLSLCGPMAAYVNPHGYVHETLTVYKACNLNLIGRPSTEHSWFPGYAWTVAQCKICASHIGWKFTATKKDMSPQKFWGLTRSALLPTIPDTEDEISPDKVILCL
Chain of [CK1α]-[compound]-[CRBN/DDB1] ternary complex (Q16531 whole entry partner): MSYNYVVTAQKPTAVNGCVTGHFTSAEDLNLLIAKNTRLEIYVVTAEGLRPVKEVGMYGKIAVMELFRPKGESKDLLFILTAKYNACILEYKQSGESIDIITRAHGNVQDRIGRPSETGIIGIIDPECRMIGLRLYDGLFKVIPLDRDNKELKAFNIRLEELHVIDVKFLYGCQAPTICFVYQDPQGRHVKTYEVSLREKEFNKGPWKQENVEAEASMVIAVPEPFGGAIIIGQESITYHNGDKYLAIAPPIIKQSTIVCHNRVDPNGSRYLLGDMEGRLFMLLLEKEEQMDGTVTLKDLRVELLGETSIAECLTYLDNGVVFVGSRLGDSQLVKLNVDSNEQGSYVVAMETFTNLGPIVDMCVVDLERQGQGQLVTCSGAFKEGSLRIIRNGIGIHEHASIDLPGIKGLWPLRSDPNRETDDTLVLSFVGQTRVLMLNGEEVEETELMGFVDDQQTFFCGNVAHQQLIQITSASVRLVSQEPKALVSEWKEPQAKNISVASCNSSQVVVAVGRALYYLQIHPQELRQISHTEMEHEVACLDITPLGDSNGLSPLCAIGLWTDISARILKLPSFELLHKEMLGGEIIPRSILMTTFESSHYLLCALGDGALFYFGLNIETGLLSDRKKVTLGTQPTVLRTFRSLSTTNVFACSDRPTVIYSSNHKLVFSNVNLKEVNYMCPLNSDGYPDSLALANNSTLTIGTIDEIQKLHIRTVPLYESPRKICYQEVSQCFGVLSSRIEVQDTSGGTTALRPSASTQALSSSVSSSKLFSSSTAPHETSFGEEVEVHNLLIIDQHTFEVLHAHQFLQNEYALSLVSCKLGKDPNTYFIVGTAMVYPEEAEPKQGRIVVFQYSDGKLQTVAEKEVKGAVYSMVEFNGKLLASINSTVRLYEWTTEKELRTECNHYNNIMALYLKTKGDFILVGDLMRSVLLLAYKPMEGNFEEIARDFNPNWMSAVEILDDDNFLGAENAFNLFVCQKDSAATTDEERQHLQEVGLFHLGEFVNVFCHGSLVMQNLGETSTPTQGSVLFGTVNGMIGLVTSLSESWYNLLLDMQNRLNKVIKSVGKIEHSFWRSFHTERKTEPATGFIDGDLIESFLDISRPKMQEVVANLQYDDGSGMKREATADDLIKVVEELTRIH
T2 sequence (Q9UJQ4 410-432 limits assumed): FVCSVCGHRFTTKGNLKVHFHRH
T2 sequence (Q96SW2 whole entry): as the sequence (Q96SW2 whole entry) above
T2 sequence (Q16531 whole entry partner): as the sequence (Q16531 whole entry partner) above
T1 sequence (Q13422 145-167 limits assumed): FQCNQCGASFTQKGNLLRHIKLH
T1 sequence (Q96SW2 whole entry): as the sequence (Q96SW2 whole entry) above
T1 sequence (Q16531 whole entry partner): as the sequence (Q16531 whole entry partner) above
T3 sequence (Q9UKS7 140-162 limits assumed): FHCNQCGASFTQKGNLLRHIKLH
T3 sequence (Q96SW2 whole entry): as the sequence (Q96SW2 whole entry) above
T3 sequence (Q16531 whole entry partner): as the sequence (Q16531 whole entry partner) above

For `Cc1ccc(NC(=O)NCc2ccc3c(c2)CN(C2CCC(=O)NC2=O)C3=O)cc1Cl` (stereo not shown) [CC-885, reference compound], the “Normalized ternary complex response, IKZF1 ZF2” value in experiment [1] was “A (A≥50%)”. For the same compound, the “Normalized ternary complex response, SALL4 ZF2” value in experiment [2] is “A (A≥50%)”. Moreover, the “Normalized ternary complex response, IKZF2 ZF2” value in experiment [3] was “A (A≥50%)”. In addition, the “Normalized ternary complex response, CK1α” value in experiment [4] is recorded as “C (10%≤C<25%)”.
